Assay results as given in ChEMBL document CHEMBL1148616, “Synthesis and structure-activity relationships of novel poly(ADP-ribose) polymerase-1 inhibitors” (Bioorg Med Chem Lett, 2006).

Each compound was assayed against Poly [ADP-ribose] polymerase 1 (Homo sapiens, UniProt P09874).
Sequence of Poly [ADP-ribose] polymerase 1 (P09874 whole entry): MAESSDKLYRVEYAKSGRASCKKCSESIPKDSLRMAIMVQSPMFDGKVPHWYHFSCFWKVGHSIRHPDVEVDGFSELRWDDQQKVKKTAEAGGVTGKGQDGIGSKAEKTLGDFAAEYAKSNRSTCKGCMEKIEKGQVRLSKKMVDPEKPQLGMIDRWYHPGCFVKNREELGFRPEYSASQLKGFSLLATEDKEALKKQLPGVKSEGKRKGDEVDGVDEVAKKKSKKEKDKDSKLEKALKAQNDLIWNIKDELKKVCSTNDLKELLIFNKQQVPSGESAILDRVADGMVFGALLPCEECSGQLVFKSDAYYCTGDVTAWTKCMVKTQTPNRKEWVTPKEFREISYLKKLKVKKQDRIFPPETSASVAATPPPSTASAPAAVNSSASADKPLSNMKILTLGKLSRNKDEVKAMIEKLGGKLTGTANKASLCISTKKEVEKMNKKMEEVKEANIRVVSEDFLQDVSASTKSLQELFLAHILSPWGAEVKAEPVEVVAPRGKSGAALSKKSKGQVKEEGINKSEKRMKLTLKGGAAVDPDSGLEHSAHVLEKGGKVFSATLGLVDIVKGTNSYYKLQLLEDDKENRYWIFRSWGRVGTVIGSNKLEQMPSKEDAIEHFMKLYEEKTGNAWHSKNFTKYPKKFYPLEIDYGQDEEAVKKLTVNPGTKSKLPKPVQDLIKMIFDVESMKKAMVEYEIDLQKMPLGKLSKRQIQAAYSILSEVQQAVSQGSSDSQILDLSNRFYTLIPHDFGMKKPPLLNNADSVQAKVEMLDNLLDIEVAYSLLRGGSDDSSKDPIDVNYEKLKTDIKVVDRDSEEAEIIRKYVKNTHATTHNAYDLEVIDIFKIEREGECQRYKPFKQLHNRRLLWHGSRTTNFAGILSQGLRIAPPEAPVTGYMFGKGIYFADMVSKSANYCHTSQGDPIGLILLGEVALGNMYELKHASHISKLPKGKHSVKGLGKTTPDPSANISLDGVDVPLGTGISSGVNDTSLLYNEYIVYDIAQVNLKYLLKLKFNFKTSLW
Description: Inhibitory activity against human PARP1 expressed in PC12 cells

IC50 [µM] | SMILES
> 10 | O=C1NC(=O)c2c1c1c(c3sc4ccccc4c23)CCC1
0.026 | Nc1ccc2c3c(cccc13)C(=O)NC2=O
> 10 | O=C1NC(=O)c2c1c1c(c3oc4ccccc4c23)CCC1
> 10 | CCCc1c2c(c3c([nH]c4ccccc43)c1CC)C(=O)NC2=O
> 10 | O=C1NC(=O)c2c1c1ccccc1c1[nH]c3ccccc3c21
